{"source": "paper PMC4469081", "about": "(Bioorganic & medicinal chemistry letters, 2015)", "type_in_all_cases": "cell-based", "key": {"ldlA[mSR-BI] cells": {"tested_on": "ldlA[mSR-BI] cells", "assay": "Cytotoxicity in the assay cell line", "conditions": "24 h incubation stated for 1a"}, "[1]": {"biological_target": "T1, mouse SR-BI (ldlA[mSR-BI]) (Mus musculus, UniProt Q61009)", "T1 sequence (Q61009 1-509)": "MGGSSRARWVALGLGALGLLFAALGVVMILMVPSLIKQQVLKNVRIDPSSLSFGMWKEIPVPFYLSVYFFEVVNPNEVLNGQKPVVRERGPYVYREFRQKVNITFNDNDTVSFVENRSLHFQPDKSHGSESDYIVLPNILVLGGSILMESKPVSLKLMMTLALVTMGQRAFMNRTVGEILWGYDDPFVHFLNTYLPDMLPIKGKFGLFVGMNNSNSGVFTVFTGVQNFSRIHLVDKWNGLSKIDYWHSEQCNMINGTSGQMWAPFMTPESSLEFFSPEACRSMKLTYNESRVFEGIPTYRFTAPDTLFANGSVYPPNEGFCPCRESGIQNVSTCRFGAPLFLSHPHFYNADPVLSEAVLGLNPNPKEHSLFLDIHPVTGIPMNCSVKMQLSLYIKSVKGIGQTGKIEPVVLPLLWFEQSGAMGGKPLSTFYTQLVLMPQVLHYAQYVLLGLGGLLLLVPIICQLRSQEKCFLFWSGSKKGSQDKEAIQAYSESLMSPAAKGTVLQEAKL", "assay": "DiI-HDL uptake assay"}, "[2]": {"tested_on": "receptor-mediated endocytosis of transferrin by ldlA[mSR-BI] cells", "assay": "Endocytosis of Alexa-594-labeled transferrin", "conditions": "concentrations up to 35 μM"}}, "note": "Entries after “also recorded” stand apart in the source; their conditions may differ."}
{"smiles": "COc1ccc(-c2nnn(CC(=O)N(C3CCCCC3)C(C)C(=O)NC3CCCC3)n2)cc1OC", "note": "(centres unmarked) [Compound 1a]", "values": [{"measurement": "Cytotoxicity", "setting": "ldlA[mSR-BI] cells", "value": "no measurable cytotoxicity"}]}
{"smiles": "COc1ccc(-c2nnn(CC(=O)N(CC3CCCCC3)C(C)C(=O)NC3CCCC3)n2)cc1OC", "note": "(centres unmarked) [Compound 4d]", "values": [{"measurement": "Fold decrease in activity relative to 1a", "setting": "[1]; carbon atom inserted between cyclohexyl group and backbone nitrogen", "value": "greater than 20 fold"}]}
{"smiles": "C[C@H](C(=O)NC1CCCC1)N(C(=O)Cn1nnc(-c2ccc3c(c2)OCO3)n1)C1CCCCC1", "note": "[Compound 5e]", "values": [{"measurement": "Cytotoxicity", "setting": "ldlA[mSR-BI] cells; listed as ML279", "value": "non-toxic; also recorded: not cytotoxic"}, {"measurement": "Fold more potent than its enantiomer 5d", "setting": "[1]; (R)-isomer vs (S)-isomer", "value": 100, "unit": "fold"}, {"measurement": "Inhibition of transferrin endocytosis", "setting": "[2]", "value": "no inhibition"}]}
